According to patent US8603997B2, “siRNA that inhibits WT1 gene expression and uses thereof” (Haruo Sugiyama, priority 2004, dated 2013):

Key:
[1] = system: HT-1080 fibrosarcoma cells (WT1-expressing); assay: Cell count 72 hours after introducing vector-based WT1 siRNAs, HT-1080; settings: HT-1080, cell count 72 hours after introduction, versus mock vector
Experimental: (§1) Treatments with the siRNA vectors and mock vector were carried out in the following steps. Cells were plated onto a 6-well plate, and on the next day, the WT1-siRNA expression vectors and mock vector were transiently expressed by lipofection using FuGENE 6 (Roche). Three days later, the cells were trypsinized and the number of cells was counted. The WT1 protein expression level in these cells was analyzed by Western blotting.
To analyze the effect of vector-based WT1 siRNAs on cell growth, the number of cells was counted 72 hours after introducing the six types of vector-based WT1 siRNAs, loop1-WRI-4, WRI-4, WRI-4m, WRI-16m, WRI-17m, and WRI-18m, and a mixture of WRI-4m, WRI-16m, WRI-17m, and WRI-18m, respectively. […] Among the WT1 siRNAs, WRI-4m suppressed growth by 90% or more. In contrast, in PC-14 lung cancer cells (a non-WT1-expressing cell line), cell growth was not suppressed by any of the six vector-based WT1 siRNA treatments (FIG. 6).

[2] = system: AZ-521 gastric cancer cells; assay: Cell count 72 hours after vector introduction, AZ-521; type: cell-based; settings: AZ-521, cell count 72 hours later
Experimental: as §1
(§2) Furthermore, to investigate whether two types of vector-based WT1 siRNAs (WRI-4m and WRI-16m) can suppress the growth of various WT1-expressing cancer cells, these vectors were introduced into three WT1-expressing cell lines: AZ-521 gastric cancer cells, SW620 colon cancer cells, and HL-60 leukemia cells, and the number of cells were counted 72 hours later.

[3] = system: SW620 colon cancer cells; assay: Cell count 72 hours after vector introduction, SW620; type: cell-based; settings: SW620, cell count 72 hours later
Experimental: as §1, §2

[4] = system: HL-60 leukemia cells; assay: Cell count 72 hours after vector introduction, HL-60; type: cell-based; settings: HL-60, cell count 72 hours later
Experimental: as §1, §2

[5] = system: HT-1080 cells; assay: Apoptosis by Annexin V-FITC/PI flow cytometry, HT-1080; type: cell-based
Experimental: (§3) To elucidate the mechanism of cancer cell growth suppression by vector-based WT1 siRNAs, induction of apoptosis in cells subjected to a vector-based WT1 siRNA treatment was analyzed. Two WT1-expressing cell lines HT-1080 and AZ-521, and a non-WT1-expressing cell line PC-14 were subjected to the WRI-4m treatment, double-stained with AnnexinV-FITC and PI, and then analyzed by flow cytometry.
(§4) Apoptosis analysis by flow cytometry was carried out by the following steps. First, to detect apoptosed cells, 1.0×10^5 cells were washed with PBS, and then the cells were stained by reaction with Annexin V-FITC and PI at room temperature for 15 minutes, using the MEBCYTO Apoptosis kit (Medical and Biological Laboratories Co., Ltd, Nagoya, Japan). Upon analysis of these cells using a FACScan flowcytometer (Becton Dickinson, San Jose, Calif.), Annexin V-FITC-positive cells were defined as apoptosed cells.

[6] = system: AZ-521 cells; assay: Apoptosis by Annexin V-FITC/PI flow cytometry, AZ-521; type: cell-based
Experimental: as §3, §4

[7] = system: PC-14; assay: Apoptosis by Annexin V-FITC/PI flow cytometry, PC-14; type: cell-based; settings: PC-14 (non-WT1-expressing)
Experimental: as §3, §4

[8] = system: HT-1080 cells; assay: Mitochondrial membrane potential by MitoLight staining and flow cytometry, HT-1080; type: cell-based; settings: HT-1080, 72 hours, compared to mock vector treatment
Experimental: (§5) To elucidate whether the vector-based WT1 siRNA-induced apoptosis takes place through a mitochondria-mediated pathway, the WT1-expressing cell line HT-1080 cells and the non-WT1-expressing cell line PC14 cells were both treated with WRI-4m and a mock vector respectively. 72 hours later, the state of mitochondrial membrane potential was analyzed by MitoLight staining followed by flow cytometry.
(§6) The change in mitochondrial membrane potential (ΔΨm) due to apoptosis induction was analyzed using the MitoLight apoptosis detection kit (Chemicon). Cells after apoptosis induction were incubated at 37° C. in a buffer containing MitoLight (a mitochondria staining dye) for 15 minutes, and then analyzed on a FACScan FL2 channel.

[9] = system: PC-14; assay: Mitochondrial membrane potential by MitoLight staining and flow cytometry, PC-14; type: cell-based; settings: PC-14 (non-WT1-expressing), 72 hours
Experimental: as §5, §6

[10] = system: cancer cells; assay: Release of cytochrome c from mitochondria into cytoplasm after combined treatment (Western blot); type: cell-based
Experimental: Western blot analysis was carried out by the following steps. Cells transiently expressing the siRNA expression vectors and mock vector were dissolved in an SDS sample buffer, and proteins were separated by SDS-PAGE and then blotted onto a PVDF membrane. Color was developed using a BCIP-NBT kit with the anti-WT1 antibody C-19 (Santa Cruz Biotechnology), an anti-cytochrome C antibody (Pharmingen), or an anti-GAPDH antibody (Chemicon) as a primary antibody, and an ALP-conjugated anti-rabbit or anti-mouse antibody (Santa Cruz Biotechnology) as a second antibody.
Combined use of an siRNA vector with a chemotherapeutic agent or a death ligand, was carried out by the following steps. […]
To reveal that enhancement of cell growth suppression due to combined use of vector-based WT1-siRNA with an anticancer agent is caused by enhancing the induction of mitochondria-mediated apoptosis, the release of cytochrome c from mitochondria into cytoplasm which takes place after combined treatment of vector-based WT1-siRNA with doxorubicin or etoposide was analyzed.
The release of cytochrome c from mitochondria into cytoplasm was analyzed by the following steps. […]

[11] = system: cancer cells; assay: Mitochondrial membrane potential after combined treatment (flow cytometry); type: cell-based; settings: compared to anticancer agent alone
Experimental: as §6
Combined use of an siRNA vector with a chemotherapeutic agent or a death ligand, was carried out by the following steps. Cells were plated onto a 6-well plate, and on the next day, the vector-based WT1 siRNA and mock vector were transiently expressed by lipofection using FuGENE 6 (Roche), and 48 hours later, the cells were treated for another 24 hours with 25 μM etoposide (WAKO), 0.2 μM doxorubicin (Sigma), or […] of TNF-related apoptosis-inducing ligand (TRAIL) (Peprotech).
Mitochondrial membrane potential after combined treatment using vector-based WT1 siRNA with doxorubicin, etoposide, and TRAIL, respectively, was evaluated by flow cytometry.

## WRI-4m: siRNA vector, loop 2, target positions 1150-1179 (SEQ ID NO: 9), mutated sense strand SEQ ID NO: 11 (sense AGCTCCAGCTTAGTGAAGTGGGTAGGAGGG)
[1]
  growth suppression: ≥ 90%
[2]
  growth compared to mock vector treatment: significantly suppressed
[3]
  growth compared to mock vector treatment: significantly suppressed
[4]
  growth compared to mock vector treatment: significantly suppressed
[5]
  apoptosis induced (Annexin V-FITC-positive cells): 71.1%
[6]
  apoptosis induced (Annexin V-FITC-positive cells): 40.6%
[7]
  apoptosis induction: did not induce apoptosis
[8]
  loss of the mitochondrial membrane potential: significantly induced
[9]
  loss of the mitochondrial membrane potential: did not induce
[10]; combined treatment with doxorubicin (0.2 μM, 24 hours)
  release of cytochrome c into cytoplasm: enhanced
[10]; combined treatment with etoposide (25 μM, 24 hours)
  release of cytochrome c into cytoplasm: enhanced
[11]; combined treatment with doxorubicin
  loss of mitochondrial membrane potential: significantly enhanced
[11]; combined treatment with etoposide
  loss of mitochondrial membrane potential: significantly enhanced
